The values that follow come from patent US6969712B2, “Benzimidazole derivatives” (Banyu Pharmaceutical Co., Ltd., priority 2000, dated 2005).

A word on the pIC50: it is the negative decadic logarithm of the IC50, by convention in mol/L.

Assay [1] has as its target T1, nociceptin receptor ORL1 (Homo sapiens, UniProt P41146).
T1 construct: expressed in transfected cells
In words: Nociceptin receptor binding inhibition assay. The conditions noted are these: inhibition of 50 pM [125I]Tyr14-Nociceptin binding to CHO/ORL1 cell membrane, SPA beads, 37° C., 60 minutes; read-out: IC50 value, nociceptin receptor binding inhibition action. How it is done: cDNA which codes a human nociceptin receptor gene (accession No.X77130) was cloned into an expression vector pCR3 (Invitrogen) to prepare pCR3/ORL1. Next, pCR3/ORL1 was transfected in CHO cells using a transfectam (Nippongene) following the directions in the manual appended to the reagent to obtain a stable expression strain (CHO/ORL1 cells) having resistance against 1 mg/ml concentration G418. A membrane fraction (a precipitate fraction obtained by an hour's centrifuge at 100,000 G of the supernatant resulting from 15 minutes' certrifuge at 10,000 G) was prepared from this stable expression strain to carry out a receptor binding assay.
Eleven (11) μg of the membrane, 50 pM [^125I] Tyr^14-Nociceptin (Amersham Pharmacia Biotech) (specific activity 2000 Ci/mmol), 1 mg Wheatgerm agglutinin SPA beads (PVT based; Amersham Pharmacia Biotech) and a test compound were suspended in an NC buffer (50 mM Hepes, 10 mM sodium chloride, 1 mM magnesium chloride, 2.5 mM calcium chloride, 0.1% BSA, 0.025% bacitracin, pH 7.4) and incubated at 37° C. for 60 minutes, and then the radioactivity was determined with Top Count (Packard). The binding activity to the nociceptin receptor was expressed by the 50% inhibition concentration (IC50 value) which was calculated from the inhibition activity to binding to ORL1 receptor of [^125I] Tyr^14-Nociceptin by the compounds of the present invention at various concentrations.

Assay [2] addresses T1, nociceptin receptor ORL1. Kind of assay: Antagonism against nociceptin-elicited G protein activation (GTPγ[35S] binding). Format: biochemical. Conditions: GTPγ[35S] binding inhibition, CHO/ORL1 cell membrane, 50 nM nociceptin, 25° C., 150 minutes. The procedure: CHO cells which stably expressed a nociceptin receptor ORL1 were used to investigate the action of tested compounds against nociceptin-elicited G protein activation. A membrane prepared from the CHO/ORL1 cell, 50 nM nociceptin, 200 pM GTPγ[^35S](NEN), 1.5 mg Wheatgerm agglutinin SPA beads (PVT based; Amersham Pharmacia Biotech) and each of the tested compounds were mixed in a GDP buffer (20 mM Hepes, 100 mM sodium chloride, 10 mM magnesium chloride, 1 mM EDTA, 5 μM GDP, pH 7.4) and incubated at 25° C. for 150 minutes, and then the radioactivity was determined. The antagonism against nociceptin-elicited G protein activation was shown by the 50% inhibition concentration (IC50 value) which was calculated from GTP γ [^35S] binding inhibition activity of the compounds of the present invention at various concentrations. From the result it can be understood that the compounds of the invention have antagonism against nociceptin-elicited G protein activation via ORL1 receptor.
On the technique in general: Binding of GTPγS marks nucleotide exchange on a G protein.

Each structure is given as a SMILES string. pIC50: −log10 of the molar value. Structures can show the parent of a compound that is named as a salt.

T1 sequence (P41146 whole entry): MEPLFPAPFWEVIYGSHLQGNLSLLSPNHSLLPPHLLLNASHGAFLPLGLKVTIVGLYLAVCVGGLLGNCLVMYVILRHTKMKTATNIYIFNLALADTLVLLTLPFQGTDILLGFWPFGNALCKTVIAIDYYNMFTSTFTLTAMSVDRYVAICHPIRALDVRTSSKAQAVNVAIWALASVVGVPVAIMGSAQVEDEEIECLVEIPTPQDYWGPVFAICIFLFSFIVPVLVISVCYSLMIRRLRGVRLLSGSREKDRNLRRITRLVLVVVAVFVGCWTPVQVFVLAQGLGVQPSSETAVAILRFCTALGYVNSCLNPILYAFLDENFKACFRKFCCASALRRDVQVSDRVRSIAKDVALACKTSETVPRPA

With `CCC(CC)Sc1nc2cc(Cl)c(N3CCNCC3)cc2[nH]1` [Example 1, 5-chloro-2-[(1-ethylpropyl)sulfanyl]-6-(piperazin-1-yl) benzimidazole dihydrochloride], the pIC50 in assay [1] was 8.68; in assay [2], 8.04. For the compound `CC(CC(C)(C)C)Sc1nc2cc(N3CCNCC3)c(Cl)cc2[nH]1` (centres unmarked) [Example 26, 5-chloro-6-(piperazin-1-yl)-2-[(1,3,3-trimethylbutyl)-sulfanyl]benzimidazole dihydrochloride], the pIC50 in assay [1] is 8.89; in assay [2], 8.28. The like results for `CCC(CC)Sc1nc2cc(Cl)c(N3CCN(CCO)CC3)cc2[nH]1` [Example 89, 5-chloro-2-[(1-ethylpropyl)sulfanyl]-6-[4-(2-hydroxyethyl)piperazin-1-yl]benzimidazole dihydrochloride] were, in that order, 8.19 and 8.17. Consider `CC(C)(CN1CCOCC1)Sc1nc2cc(N3CCN(CCO)CC3)c(Cl)cc2[nH]1` [Example 101, 5-chloro-2-[(1,1-dimethyl-2-morpholinoethyl)sulfanyl]-6-[4-(2-hydroxyethyl)piperazin-1-yl]benzimidazole trihydrochloride], for which the pIC50 in assay [1] is 8.04; in assay [2], 8.10. For the compound `Clc1cc2[nH]c(SCC3CCCCC3)nc2cc1N1CCN(CC2CC2)CC1` [Example 102, 5-chloro-2-[(cyclohexylmethyl)sulfanyl]-6-[4-(cyclopropylmethyl)piperazin-1-yl]benzimidazole], the pIC50 in assay [1] was 8.46. Turning to `CC1(Sc2nc3c(F)c(N4CCN(CCO)CC4)c(Cl)cc3[nH]2)CCCC1` [Example 142, 5-chloro-7-fluoro-6-[4-(2-hydroxyethyl)piperazin-1-yl]-2-[(1-methylcyclopentyl)sulfanyl]benzimidazole], the pIC50 was 9.02 in assay [1] and 9.24 in assay [2]. Regarding `CCC(CC)COc1nc2cc(N3CCNCC3)c(Cl)cc2[nH]1` [Referential Example 1, 5-chloro-2-[(2-ethylbutyl)oxy]-6-(piperazin-1-yl)benzimidazole dihydrochloride], the results for the pIC50 in assay [1] and in assay [2] were 8.15 and 6.74, respectively.

For `CCCC(CC)Nc1nc2cc(N3CCNCC3)c(Cl)cc2[nH]1` (centres unmarked) [Referential Example 13, 5-chloro-2-[(1-ethylbutyl)amino]-6-(piperazin-1-yl)-benzimidazole dihydrochloride], the pIC50 in assay [1] was 6.37.
